Measurements taken from patent US20070202085A1, “Systems and methods for monitoring immune responses and predicting outcomes in transplant recipients” (Renovar Incorporated, priority 2006, published 2007).
Several values for one entry are separate records, joined by “and”; a condition that tells them apart may be missing. Equal values may be shown once.

Assays:
[1] = test system: peripheral blood T cells (CD3), B cells (CD20), monocytes (CD14), lymphocytes; test: Leukocyte repopulation in peripheral blood of renal allograft patients; type: in vivo, human
Experimental: (§1) Patients and Protocol Therapy. Primary renal allograft patients received a non-HLA-identical kidney from either cadaveric or living donors. Subjects were 18-60 years of age and had between 1-6 MHC antigen mismatches with the kidney allograft. Kidney transplant recipients were given CAMPATH-1H (Alemtuzumab, ILEX Oncology, Inc.) at day −1 and day 0 of transplant (40 mg total dose), followed by long-term treatment with rapamycin at levels averaging 9 ng/ml. […] Another […] patients were enrolled in the control arm. The latter group received anti-CD25 (Basiliximab, Novartis, East Hanover, N.J.) induction therapy, along with conventional long-term immunosuppressants (CsA, steroids, and MMF). All patients gave written informed consent to participate in the study. The protocol was given approval by the Institutional Review Board at the University of Wisconsin-Madison.
In renal allograft recipients treated with CAMPATH-1H, immunodepletion is profound, with a 2-3 log reduction in peripheral lymphocytes at the outset (See, e.g., Brett et al., Immunology 1996, 88,13). […] Although monocytes and B cells recovered to baseline numbers by 3 and 12-months, respectively, T cell levels were slow to repopulate, recovering to approximately 50% baseline by 36 months. CD4+ and CD8+ T cell subsets were at an approximate 2:1 ratio pre-transplant, yet CD8+ T cells recovered at a relatively constant 1:1 ratio with CD4+ cells in CAMPATH-treated patients (See FIG. 6b).

[2] = test system: peripheral blood T cells (CD3), B cells (CD20), monocytes (CD14), lymphocytes; details: renal allograft recipients, at the outset; cited from earlier work
[3] = test system: kidney allograft; test: Protocol kidney biopsy after transplantation; type: in vivo, human; details: for M12 biopsy: kidney biopsy 12 months after transplantation, per patient
Experimental: as §1
Among the 15 CAMPATH-treated recipients, 10 used a single drug (9 with Sirolimus and 1 with Tacrolimus) for their maintenance immunosuppressive therapy. […] In the control group, all 8 patients were treated with a combination of CsA, MMF and prednisone for their immunosuppressive maintenance.

[4] = test system: recipient T cells (alloreactivity to donor antigen); test: IFN-γ kinetics assay in the 5-day CFSE-MLR of renal allograft patients; type: cell-based, human; parameters: key to IFN-γ assay: HYPO: hyporesponsive; EQL: equal response to donor and third-party antigen; HYPR: hyperresponsive to donor Ag; UN: no response to donor Ag; details: for IFN-γ assay: per patient, month 12, response to donor versus third-party antigen
Experimental: (§2) CFSE-MLR Assay. Blood was collected at 12 months post-transplant, and PBMC's purified by Ficoll gradient separation. Recipient PBMC's were labeled with 5.0 μM CFSE for 10 minutes at 37° C., upon which 1 ml of cold FCS was added to stop further staining. Cells were then washed once in complete media, and used as responder cells in an MLR in which both proliferation and kinetics of cytokine expression were measured in response to irradiated donor, third party, or autologous stimulator PBMC's. The number of class I and class II MHC mismatches between host/donor and host/third party were kept as consistent as possible with the available third parties from which to choose. A total of 2×10^5 responder and 2×10^5 stimulator cells/well were added to a 96-well round-bottom plate, in a total of 200 μl/well complete RPMI with 15% FCS. Cultures were set up in quintuplet wells such that the supernatants could be collected every 24 hours during the 5-day MLR. On day 5, T cell proliferation was measured by flow cytometry using PE-conjugated anti-CD3, CD4, and CD8 antibodies. Live cells were gated out by PI, and subsequent PE-positive cells in the lymphocyte gate were analyzed for their loss of CFSE intensity. On average, 4000 live lymphocytes were acquired for analysis using CellQuest software and a FACSCAN flow cytometer. Proliferation was analyzed using FlowJo software (Tree Star, Inc.).
Cytokine Kinetics Test. Cytokine expression levels in the MLR supernatants were measured using a multi-cytokine fluorescent bead detection system (BeadLyte, Upstate, Inc.). Fifty μl of Day 1-5 supernatants were utilized to analyze the cytokines: IL-1β, IL-2, IL-4, IL-6, IL-8, IL-10, IL-12, GM-CSF, TNF-α, and IFN-γ.
Additional information was obtained from the 5-day CFSE-MLR by collecting supernatants at 24-hour intervals and analyzing them for the expression of IFN-γ. The kinetic patterning gave a comprehensive picture of alloreactivity which could be categorized into 4 distinct groups: 1) patients who responded equally well to donor and third party antigen, 2) those who were hypo-responsive to donor, 3) those who were hyper-responsive to donor, and 4) those who were completely unresponsive to donor as opposed to third party antigen (See FIG. 4). […] Statistically, there was no bias in the hypo- (P=0.51) or hyper-responsive (P=0.73) groups using the 1-tailed Fisher's exact test. […] Therefore, the donor unresponsiveness of these 4 patients cannot simply be attributed to low T cell counts. Taken together, the present invention provides that CAMPATH-rapamycin immunotherapy promotes T cell unresponsiveness in at least a subset of renal allograft recipients.

[5] = test system: CD3+, CD4+ and CD8+ recipient T cells; test: CFSE-MLR proliferation assay with recipient PBMC; type: cell-based, human; details: patient UW19, response to third party antigen, 12 months
Description: To examine the proliferative response of host T cells to donor antigen, purified responder PBMC's were labeled with CFSE. In an effort to keep the APC source constant, only PBMC's from living donors and third parties were used.
For simplicity, the loss of CFSE intensity was designated “percent proliferation” or “percent CFSE low” (e.g., even though, generally, this is a measure of the actual number of daughter cells initially involved in the response).

[6] = test system: recipient T cells (alloreactivity to donor antigen); test: GM-CSF kinetics assay in the 5-day CFSE-MLR of renal allograft patients; type: cell-based, human; parameters: key: HYPO: hyporesponsive; EQL: equal response to donor and third-party antigen; HYPR: hyperresponsive to donor Ag; UN: no response to donor Ag; details: per patient, month 12, response to donor versus third-party antigen
Experimental: as §2, with “Cultures were set up in quintuplet wells such that the supernatants could be collected every 24 hours during the 5-day MLR.” left out, “On average, 4000 live lymphocytes were acquired for analysis using CellQuest software and a FACSCAN flow cytometer.” left out
Cytokine Kinetics Test. Cytokine expression levels in the MLR supernatants were measured using a multi-cytokine fluorescent bead detection system (BeadLyte, Upstate, Inc.). […]

[7] = maintenance Tacrolimus, prednisone
[8] = IFN-γ kinetics, 12 months, n=15 Campath, n=8 Control

Which “T cell levels recovered” value ([1]; by 36 months) does the source give for “Campath: humanized monoclonal antibody that binds CD52; induction therapy followed by long-term rapamycin” here?
The value was “approximately 50 % baseline”.

And the “lymphocyte repopulation (total lymphocyte count versus pre-transplant)” value ([1]; month 12 post-transplant)?
The value was “below 50 % baseline”.

What about the “time at which B cells recovered to baseline numbers” value ([1]; peripheral blood, 29 patients) of the same substance?
The value was at most 12 months.

What about the “time at which monocytes recovered to baseline numbers” value ([1]; peripheral blood, 29 patients) of the same substance?
Its value is at most 3 months.

And the “reduction in peripheral lymphocytes” value [2]?
The value was 2-3 log.

What about the M12 biopsy [3] of the same substance?
Its M12 biopsy is “normal histology”.

And the M12 biopsy ([3]; maintenance Sirolimus)?
Its M12 biopsy is “Normal”.

What about the M12 biopsy ([3]; maintenance Sirolimus, MMF) of the same substance?
Its M12 biopsy is “C4d+, humoral rejection”.

What about the M12 biopsy ([3]; maintenance Tacrolimus) of the same substance?
Its M12 biopsy is “Normal”.

And the M12 biopsy ([3]; maintenance Tacrolimus, MMF)?
Its M12 biopsy is “Normal”.

What about the M12 biopsy [3, 7] of the same substance?
Its M12 biopsy is “Acute rejection Banff 1A”.

And the M06 biopsy ([3]; kidney biopsy at month 6, M12 biopsy declined)?
Its M06 biopsy is “M06 Biopsy Normal Declined M12”.

And the “Donor-specific nonresponsiveness (number of patients)” value [4, 8]?
Its value is 4.

What about the “Equal response (number of patients)” value [4, 8] of the same substance?
Its value is 1.

What about the “Hyper-response (number of patients)” value [4, 8] of the same substance?
Its value is 2.

And the “Hypo-response (number of patients)” value [4, 8]?
The value was 8.

What about the “Hyper-response (number of patients)” value ([4]; IFN-γ kinetics, 12 months, n=15 Campath, n=8 Control, listed as CAMPATH) of the same substance?
Its value is “Two”.

And the IFN-γ assay ([4]; maintenance Sirolimus)?
The IFN-γ assay was “HYPO (3×) and HYPR (2×) and UN (3×) and EQL”.

And the IFN-γ assay ([4]; maintenance Sirolimus, MMF)?
Its IFN-γ assay is “HYPO”.

And the IFN-γ assay ([4]; maintenance Tacrolimus)?
Its IFN-γ assay is “HYPO”.

And the IFN-γ assay ([4]; maintenance Tacrolimus, MMF)?
Its IFN-γ assay is “HYPO”.

And the IFN-γ assay ([4]; maintenance Tacrolimus, MMF, prednisone)?
The IFN-γ assay was “HYPO”.

And the IFN-γ assay [4, 7]?
Its IFN-γ assay is “UN”.

What about the “percent proliferation of CD3+ cells” value [5] of the same substance?
Its value is 6.7%.

What about the “percent proliferation of CD4+ cells” value [5] of the same substance?
Its value is 7.1%.

What about the “percent proliferation of CD8+ cells” value [5] of the same substance?
Its value is 5.1%.

And the GM-CSF assay [6]?
Its GM-CSF assay is “UN (4×) and HYPO (7×) and HYPR (2×) and EQL^a and EQL”.
